Measured values as given in patent US6528517B1, “Synthesis of quinobenzoxazine analogues with topoisomerase II and quadruplex interactions for use as antineoplastic agents” (Board of Regents, The University of Texas System, priority 1998, dated 2003).

How the values were obtained:
[1] = system: B16 melanoma; test: Cancer cell growth inhibition assay (MTT); format: cell-based, murine; conditions: Mus musculus, B16
Method: Exponentially growing cells in 0.1 ml medium were seeded on Day 0 in 96-well microtiter plates. On Day 1, 0.1-ml aliquots of medium containing graded concentrations test agent were added in duplicate to the cell plates. After incubation at 37° C. in a humidified incubator, the plates were centrifuged briefly (1-2 min at 1000 rpm), and 100 μl of the growth medium was removed. Cell cultures were incubated with 50 μl of 3-(4,5-dimethylthiazyl-2-yl)-2,5-diphenyltetrazolium bromide MTT, 1 mg/ml in Dubecco's PBS for 4 h at 37° C. The resulting purple formazan precipitate was solubilized with 200 μl of 0.4 N HCl in isopropyl alcohol. Absorbance was quantitated using a Bio-Rad Model 3550 microplate reader at a test wavelength of 570 nm and a reference wavelength of 630 nm. Absorbance values were transferred to a 486 personal computer, and the IC50 values were determined using the computer program EZ-ED50 (Chen et al., 1993).

[2] = system: HT-29 colon; test: Cancer cell growth inhibition assay (MTT); format: cell-based, human; conditions: Homo sapiens, HT-29
[3] = system: Raji lymphoma; test: Cancer cell growth inhibition assay (MTT); format: cell-based, human; conditions: Homo sapiens, Raji
[4] = system: MDA-231 breast; test: Cancer cell growth inhibition assay (MTT); format: cell-based, human; conditions: Homo sapiens, MDA-MB-231
[5] = system: DU-145 prostate; test: Cancer cell growth inhibition assay (MTT); format: cell-based, human; conditions: Homo sapiens, DU-145
[6] = target: T1, topo II-DNA complex (Drosophila melanogaster, UniProt P15348); test: Psorospermin competition study (DNA strand breakage assay); format: biochemical
T1 construct: purchased Amersham
T1 sequence (P15348 1-1447): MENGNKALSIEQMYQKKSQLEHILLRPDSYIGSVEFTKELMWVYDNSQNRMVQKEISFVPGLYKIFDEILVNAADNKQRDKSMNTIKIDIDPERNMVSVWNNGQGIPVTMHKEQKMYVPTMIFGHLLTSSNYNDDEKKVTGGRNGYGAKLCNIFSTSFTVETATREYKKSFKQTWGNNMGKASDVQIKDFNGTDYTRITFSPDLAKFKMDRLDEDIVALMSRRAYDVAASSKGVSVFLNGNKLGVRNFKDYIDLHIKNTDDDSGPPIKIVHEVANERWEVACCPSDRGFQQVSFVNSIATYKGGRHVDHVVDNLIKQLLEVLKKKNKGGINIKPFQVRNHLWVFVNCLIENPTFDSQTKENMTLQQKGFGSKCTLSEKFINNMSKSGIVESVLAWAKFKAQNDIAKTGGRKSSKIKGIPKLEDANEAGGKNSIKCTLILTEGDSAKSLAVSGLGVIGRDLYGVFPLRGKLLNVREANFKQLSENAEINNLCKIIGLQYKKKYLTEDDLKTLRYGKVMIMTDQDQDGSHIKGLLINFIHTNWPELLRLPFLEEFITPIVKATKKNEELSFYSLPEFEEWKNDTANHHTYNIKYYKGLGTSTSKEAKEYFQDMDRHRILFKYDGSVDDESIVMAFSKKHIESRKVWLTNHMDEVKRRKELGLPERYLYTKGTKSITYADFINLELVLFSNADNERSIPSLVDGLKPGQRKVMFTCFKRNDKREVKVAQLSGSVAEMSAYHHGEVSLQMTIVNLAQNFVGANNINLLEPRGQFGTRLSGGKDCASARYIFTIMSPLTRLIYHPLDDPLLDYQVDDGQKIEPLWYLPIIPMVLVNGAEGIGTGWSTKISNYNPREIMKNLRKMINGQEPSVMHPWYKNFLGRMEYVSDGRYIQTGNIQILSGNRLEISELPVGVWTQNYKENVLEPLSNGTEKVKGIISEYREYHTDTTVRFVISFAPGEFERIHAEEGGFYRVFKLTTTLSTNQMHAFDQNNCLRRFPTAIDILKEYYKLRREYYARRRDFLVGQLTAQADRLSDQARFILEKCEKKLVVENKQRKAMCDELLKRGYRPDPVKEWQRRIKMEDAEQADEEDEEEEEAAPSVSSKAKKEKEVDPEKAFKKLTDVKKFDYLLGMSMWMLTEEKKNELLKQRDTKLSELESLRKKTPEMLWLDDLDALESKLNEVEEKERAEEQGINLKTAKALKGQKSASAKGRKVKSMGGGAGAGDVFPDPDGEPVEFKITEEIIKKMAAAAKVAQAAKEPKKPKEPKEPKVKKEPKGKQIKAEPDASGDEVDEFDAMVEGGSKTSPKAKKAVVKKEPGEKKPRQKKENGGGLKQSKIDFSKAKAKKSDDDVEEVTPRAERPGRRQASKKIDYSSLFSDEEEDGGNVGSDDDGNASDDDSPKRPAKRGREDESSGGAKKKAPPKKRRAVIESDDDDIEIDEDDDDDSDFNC
Method: 5′^32P-labeled DNA was incubated with Drosophila topo II in the same buffer as the one in the topo II cleavage reaction in the presence of various amounts of either A-62176, Norfloxacin, or both. The incubation reactions took place at 30° C. for 10 min before 10 μM (final concentration) of psorospermin was added to the mixtures. The reactions were continued for an additional 5 min and then terminated by adding 5 μg of calf thymus DNA, followed by heating at 95° C. for 15 min. In the presence of piperidine, this procedure induces strand breakage at the drug modification sites (Hansen et al., 1996). The samples were subjected to phenol/chloroform extraction followed by ethanol precipitation.
In the presence of topo II, the reactivity of psorospermin is enhanced more than 40-fold with the guanine at the +4′ position at site B in FIG. 7 (Kwok et al., 1998a and 1998b). A DNA strand breakage assay was used to locate the position of alkylation of DNA by the epoxide of psorospermin upon intercalation to the base pairs between the +1 and +2 positions at site B within the topo II-DNA complex (Kwok et al., 1998a). Psorospermin has subsequently been used to probe the binding sites for m-AMSA (Kwok et al., 1998a). In the present study, this same assay was performed to determine the binding site of A-62176 on DNA in the presence of topo II.

N[C@H]1CCN(c2c(F)cc3c(=O)c(C(=O)O)cn4c3c2Oc2ccccc2-4)C1 [Compound A-62176, 1-(3-aminopyrrolidin-1-yl)-2-fluoro-4-oxo-4H-quino[2,3,4-i,j][1,4]benzoxazine-5-carboxylic acid, reference compound]
IC50 [1]: 170 ± 10 nM
IC50 [2]: 160 ± 10 nM
IC50 [3]: 50 ± 6 nM
IC50 [4]: 160 ± 20 nM
IC50 [5]: 160 ± 30 nM
psorospermin alkylation at site B (competition) ([6]; 0.5-10 μM drug, psorospermin, topo II present): decreased
inhibition of psorospermin alkylation, in combination with Norfloxacin ([6]; after subtracting the enhancement by Norfloxacin alone): additive effect
